Experimental data from publication PMC11240139, “Exploring the antitumor potential of novel quinoline derivatives via tubulin polymerization inhibition in breast cancer; design, synthesis and molecular docking” (RSC Advances, 2024).

What was measured:
Experiment in all cases: NCI-60 SRB cytotoxicity screen
Assay type in all cases: cell-based
[1] = test system: OVCAR-3 (ovarian cancer); details: Homo sapiens; OVCAR-3, single dose 10 μM; read-out: growth inhibition (GI%)
[2] = test system: NCI-H226 (non-small cell lung cancer); details: Homo sapiens; NCI-H226, single dose 10 μM; read-out: growth inhibition (GI%)
[3] = test system: HCT-116 (colon cancer); details: Homo sapiens; HCT-116, single dose 10 μM; read-out: growth inhibition (GI%)
[4] = test system: SN12C (renal cancer); details: Homo sapiens, single dose 10 μM, read-out: growth inhibition (GI%)
[5] = test system: U251 (CNS cancer); details: Homo sapiens, U-251; U251, single dose 10 μM; read-out: growth inhibition (GI%)
[6] = test system: COLO 205 (colon cancer); details: Homo sapiens; COLO 205, single dose 10 μM; read-out: growth inhibition (GI%)
[7] = test system: MDA-MB-468 (breast cancer); details: Homo sapiens; MDA-MB-468, single dose 10 μM; read-out: growth inhibition (GI%)
Protocol: The cytotoxic activity of the synthesized quinoline derivatives was determined by the national cancer institute (NCI, Bethesda, Maryland, USA) against 60 different cancer cell lines at a single high dose (10^−5 M) in the full NCI 60 cell panel using the sulforhodamine B assay for cell viability evaluation. In summary, 5 × 10^3 cells were in 96-well plate and incubated in complete media for 24 h. Cells were treated with 100 μL of media containing each newly synthesized compound. After drug exposure, cells were fixed by replacing media with 150 μL of 10% TCA and incubated at 4 °C for 1 h. The TCA solution was removed, and the cells were washed 5 times with distilled water. Aliquots of 70 μL SRB solution (0.4% w/v) were added and incubated in a dark place at room temperature for 10 min. The plates were washed 3 times with 1% acetic acid and allowed to air-dry overnight. Then, 150 μL of TRIS (10 mM) was added to dissolve protein-bound SRB stain. The absorbance was measured at 540 nm.% Cytotoxicity = [1 − (AVx/AVNC)] × 100where AVx denotes the average absorbance of the sample well and AVNC denotes the average absorbance of the negative control.
The methodology of the NCI anticancer screening has been described in details at (http://www.dtp.nci.nih.gov). The anticancer assay was performed in full NCI 60 cell lines derived from nine tumor subpanels, including leukemia, lung, colon, CNS, melanoma, ovarian, renal, prostate, and breast cancer cell lines.
The cell lines were first cultured for 48 h, after being exposed to a single dosage of the compound. Using the protein-binding dye sulforhodamine B dye, cell proliferation and viability were evaluated (SRB assay). The results were presented for each chemical as GI%. Compound that met NCI criteria for substantial activity were further evaluated using a five-dose experiment. The NCI60 cell lines were treated with the chemicals in this assay at five different concentration levels (0.01, 0.1, 1, 10, and 100 μM).

[8] = test system: M14 (melanoma); details: Homo sapiens; M14, single dose 10 μM; read-out: growth inhibition (GI%)
[9] = test system: MDA-MB-231/ATCC (breast cancer); details: Homo sapiens, MDA-MB-231, read-out: growth inhibition (GI%)
[10] = test system: DU-145 (prostate cancer); details: Homo sapiens; DU-145, single dose 10 μM; read-out: growth inhibition (GI%)
[11] = test system: SK-MEL-28 (melanoma); details: Homo sapiens; SK-MEL-28, single dose 10 μM; read-out: growth inhibition (GI%)
[12] = test system: K-562 (leukemia); details: Homo sapiens; K-652 [sic], single dose 10 μM; read-out: growth inhibition (GI%)
[13] = test system: SF-539 (CNS cancer); details: Homo sapiens; SF-539, single dose 10 μM; read-out: growth inhibition (GI%)
[14] = test system: T-47D (breast cancer); details: Homo sapiens, T47D, single dose 10 μM, read-out: growth inhibition (GI%)
[15] = test system: MOLT-4 (leukemia); details: Homo sapiens; MOLT-4, single dose 10 μM; read-out: growth inhibition (GI%)
[16] = test system: NCI-H322M (non-small cell lung cancer); details: Homo sapiens, single dose 10 μM, read-out: growth inhibition (GI%)
[17] = test system: CCRF-CEM (leukemia); details: Homo sapiens, single dose 10 μM, read-out: growth inhibition (GI%)
[18] = test system: LOX IMVI (melanoma); details: Homo sapiens, single dose 10 μM, read-out: growth inhibition (GI%)
[19] = test system: IGROV1 (ovarian cancer); details: Homo sapiens, IGROV-1; IGROV1, single dose 10 μM; read-out: growth inhibition (GI%)
[20] = test system: SNB-75 (CNS cancer); details: for inhibition at 10 µM: Homo sapiens, SNB-75, SNB-75, single dose 10 μM, read-out: growth inhibition (GI%)
[21] = test system: NCI/ADR-RES (ovarian cancer); details: Homo sapiens, single dose 10 μM, read-out: growth inhibition (GI%)
[22] = test system: NCI-H23 (non-small cell lung cancer); details: Homo sapiens; NCI-H23, single dose 10 μM; read-out: growth inhibition (GI%)
[23] = test system: OVCAR-8 (ovarian cancer); details: Homo sapiens; OVCAR-8, single dose 10 μM; read-out: growth inhibition (GI%)
[24] = test system: OVCAR-5 (ovarian cancer); details: Homo sapiens; OVCAR-5, single dose 10 μM; read-out: growth inhibition (GI%)
[25] = test system: HS 578T (breast cancer); details: Homo sapiens, single dose 10 μM, read-out: growth inhibition (GI%)
[26] = test system: SNB-19 (CNS cancer); details: Homo sapiens; SNB-19, single dose 10 μM; read-out: growth inhibition (GI%)
[27] = test system: SF-268 (CNS cancer); details: Homo sapiens; SF-268, single dose 10 μM; read-out: growth inhibition (GI%)
[28] = test system: A498 (renal cancer); details: Homo sapiens; A498, single dose 10 μM; read-out: growth inhibition (GI%)
[29] = test system: UO-31 (renal cancer); details: Homo sapiens; UO-31, single dose 10 μM; read-out: growth inhibition (GI%)
[30] = test system: HT29 (colon cancer); details: Homo sapiens, HT-29; HT29, single dose 10 μM; read-out: growth inhibition (GI%)

| Compound | inhibition at 10 µM [1] | inhibition at 10 µM [2] | inhibition at 10 µM [3] | inhibition at 10 µM [4] | inhibition at 10 µM [5] | inhibition at 10 µM [6] | inhibition at 10 µM [7] | inhibition at 10 µM [8] | inhibition at 10 µM [9] | inhibition at 10 µM [10] | inhibition at 10 µM [11] | inhibition at 10 µM [12] | inhibition at 10 µM [13] | inhibition at 10 µM [14] | inhibition at 10 µM [15] | inhibition at 10 µM [16] | inhibition at 10 µM [17] | inhibition at 10 µM [18] | inhibition at 10 µM [19] | inhibition at 10 µM [20] | also measured |
| --- | --- | --- | --- | --- | --- | --- | --- | --- | --- | --- | --- | --- | --- | --- | --- | --- | --- | --- | --- | --- | --- |
| CCc1cccc2cc(-c3cc(-c4ccc(OC)cc4)[nH]c(=O)c3C#N)c(Cl)nc12 [Compound 4a, 4-(2-Chloro-8-ethylquinolin-3-yl)-6-(4-methoxyphenyl)-2-oxo-1,2-dihydropyridine-3-carbonitrile] | < 10% | 15.4% | < 10% | < 10% | < 10% | < 10% | 14% | < 10% | 10% | < 10% | < 10% | 19.9% | < 10% | 17.1% | 11.9% | < 10% | < 10% | < 10% | < 10% | 54.7% | growth inhibition (GI%) ([20]; SNB-75, single dose 10 μM): 45.69%; inhibition at 10 µM [21]: < 10%; inhibition at 10 µM [22]: < 10%; inhibition at 10 µM [23]: < 10%; inhibition at 10 µM [24]: < 10%; inhibition at 10 µM [25]: 14.9%; inhibition at 10 µM [26]: < 10%; inhibition at 10 µM [27]: 21.4%; inhibition at 10 µM [28]: < 10%; inhibition at 10 µM [29]: < 10%; inhibition at 10 µM [30]: < 10% |
| CCc1cccc2cc(C=CC(=O)c3cc(OC)c(OC)c(OC)c3)c(Cl)nc12 [Compound 3c, 3-(2-Chloro-8-ethylquinolin-3-yl)-1-(3,4,5-trimethoxyphenyl)prop-2-en-1-one] | > 100% | > 100% | 61.6% | 42.3% | 78.2% | 18.4% | 61.1% | 31.9% | 39.5% | 29% | 15% | 68.1% | > 100% | 72.8% | 49.9% | 31.1% | 87.8% | 72% | < 10% | 61.7% | inhibition at 10 µM [21]: 67.6%; inhibition at 10 µM [22]: 27.4%; inhibition at 10 µM [23]: 84%; inhibition at 10 µM [24]: 26.8%; inhibition at 10 µM [25]: < 10%; inhibition at 10 µM [26]: 66.4%; inhibition at 10 µM [27]: 32.2%; inhibition at 10 µM [28]: < 10%; inhibition at 10 µM [29]: 45%; inhibition at 10 µM [30]: 77.4% |
| CCc1cccc2cc(C=CC(=O)c3ccc(OC)cc3)c(Cl)nc12 [Compound 3a, 3-(2-Chloro-8-ethylquinolin-3-yl)-1-(4-methoxyphenyl)prop-2-en-1-one] | < 10% | 79.9% | < 10% | < 10% | 17.9% | < 10% | < 10% | < 10% | < 10% | < 10% | < 10% | < 10% | 18.9% | 44% | 16.8% | < 10% | 26.9% | 11.3% | < 10% | < 10% | inhibition at 10 µM [21]: < 10%; inhibition at 10 µM [22]: < 10%; inhibition at 10 µM [23]: < 10%; inhibition at 10 µM [24]: < 10%; inhibition at 10 µM [25]: < 10%; inhibition at 10 µM [26]: < 10%; inhibition at 10 µM [27]: < 10%; inhibition at 10 µM [28]: < 10%; inhibition at 10 µM [29]: < 10%; inhibition at 10 µM [30]: < 10% |
